Measurements published in ChEMBL document CHEMBL3885881, “DrugMatrix”.

Species on record: Rattus norvegicus
Experiment: DrugMatrix - Regimen: Daily Repeat
Type: toxicity, organism-based, Sprague-Dawley
Set-up: regimen Daily Repeat, gender Male, age 6-8 weeks
Settings: in vivo, po, route oral GAVAGE, vehicle 100 % WATER; for ABSOLUTE BASOPHIL / ABSOLUTE EOSINOPHIL / ABSOLUTE LYMPHOCYTE / ABSOLUTE MONOCYTE / ABSOLUTE SEGMENTED NEUTROPHIL / BASOPHIL / EOSINOPHIL / ERYTHROCYTE COUNT / HEMATOCRIT / HEMOGLOBIN / LEUKOCYTE COUNT / LYMPHOCYTE / MEAN CORPUSCULAR HEMOGLOBIN / MEAN CORPUSCULAR HEMOGLOBIN CONCENTRATION / MEAN CORPUSCULAR VOLUME / MONOCYTE / NEUTROPHIL / NUCLEATED RED BLOOD CELLS / PLATELET COUNT: tissue Blood; for ALANINE AMINOTRANSFERASE / ALBUMIN / ALKALINE PHOSPHATASE / ASPARTATE AMINOTRANSFERASE / BLOOD UREA NITROGEN / CARBON DIOXIDE / CHLORIDE / CHOLESTEROL / CREATINE PHOSPHOKINASE / CREATININE / GLUCOSE / LACTATE DEHYDROGENASE / LIPASE / PHOSPHORUS / POTASSIUM / SODIUM / TOTAL BILIRUBIN / TOTAL PROTEIN / URIC ACID: tissue Plasma
[1] = 58 mg/kg, 120 h, dose level Low, time 5 day
[2] = 220 mg/kg, 72 h, dose level High, time 3 day
[3] = 220 mg/kg, 120 h, dose level High, time 5 day

SMILES: NC12CC3CC(CC(C3)C1)C2 [AMANTADINE]
- ABSOLUTE BASOPHIL [1]: 0 CELLS/uL
- ABSOLUTE EOSINOPHIL [1]: 0 CELLS/uL
- ABSOLUTE LYMPHOCYTE [1]: 10747.67 CELLS/uL
- ABSOLUTE MONOCYTE [1]: 83.67 CELLS/uL
- ABSOLUTE SEGMENTED NEUTROPHIL [1]: 1002 CELLS/uL
- BASOPHIL [1]: 0%
- EOSINOPHIL [1]: 0%
- ERYTHROCYTE COUNT [1]: 6.06 x10E6/uL
- HEMATOCRIT [1]: 37.8%
- HEMOGLOBIN [1]: 14.9 G/DL
- LEUKOCYTE COUNT [1]: 11.83 x10E3/uL
- LYMPHOCYTE [1]: 89%
- MEAN CORPUSCULAR HEMOGLOBIN [1]: 24.63 pg
- MEAN CORPUSCULAR HEMOGLOBIN CONCENTRATION [1]: 39.43 G/DL
- MEAN CORPUSCULAR VOLUME [1]: 62.5 fL
- MONOCYTE [1]: 1%
- NEUTROPHIL [1]: 10%
- NUCLEATED RED BLOOD CELLS [1]: 0 /100WBC
- PLATELET COUNT [1]: 1200.33 x10E3/uL
- ALANINE AMINOTRANSFERASE [1]: 44 u/L
- ALBUMIN [1]: 4.27 G/DL
- ALKALINE PHOSPHATASE [1]: 432.67 u/L
- ASPARTATE AMINOTRANSFERASE [1]: 73.33 u/L
- BLOOD UREA NITROGEN [1]: 16 mg/dL
- CARBON DIOXIDE [1]: 31 mmol/L
- CHLORIDE [1]: 100.33 MEQ/L
- CHOLESTEROL [1]: 73.33 mg/dL
- CREATINE PHOSPHOKINASE [1]: 431.33 u/L
- CREATININE [1]: 0.18 mg/dL
- GLUCOSE [1]: 147 mg/dL
- LACTATE DEHYDROGENASE [1]: 336 u/L
- LIPASE [1]: 11.33 u/L
- PHOSPHORUS [1]: 12.13 mg/dL
- POTASSIUM [1]: 6.25 MEQ/L
- SODIUM [1]: 142.77 MEQ/L
- TOTAL BILIRUBIN [1]: 0.23 mg/dL
- TOTAL PROTEIN [1]: 6.27 G/DL
- URIC ACID [1]: 1.43 mg/dL
- ABSOLUTE BASOPHIL [2]: 0 CELLS/uL
- ABSOLUTE EOSINOPHIL [2]: 0 CELLS/uL
- ABSOLUTE LYMPHOCYTE [2]: 17634 CELLS/uL
- ABSOLUTE MONOCYTE [2]: 192.33 CELLS/uL
- ABSOLUTE SEGMENTED NEUTROPHIL [2]: 940.33 CELLS/uL
- BASOPHIL [2]: 0%
- EOSINOPHIL [2]: 0%
- ERYTHROCYTE COUNT [2]: 5.62 x10E6/uL
- HEMATOCRIT [2]: 36.3%
- HEMOGLOBIN [2]: 14.43 G/DL
- LEUKOCYTE COUNT [2]: 18.77 x10E3/uL
- LYMPHOCYTE [2]: 94%
- MEAN CORPUSCULAR HEMOGLOBIN [2]: 25.7 pg
- MEAN CORPUSCULAR HEMOGLOBIN CONCENTRATION [2]: 39.77 G/DL
- MEAN CORPUSCULAR VOLUME [2]: 64.63 fL
- MONOCYTE [2]: 1%
- NEUTROPHIL [2]: 5%
- NUCLEATED RED BLOOD CELLS [2]: 0 /100WBC
- PLATELET COUNT [2]: 1304.33 x10E3/uL
- ALANINE AMINOTRANSFERASE [2]: 42.33 u/L
- ALBUMIN [2]: 4.23 G/DL
- ALKALINE PHOSPHATASE [2]: 440 u/L
- ASPARTATE AMINOTRANSFERASE [2]: 69 u/L
- BLOOD UREA NITROGEN [2]: 13.67 mg/dL
- CARBON DIOXIDE [2]: 32 mmol/L
- CHLORIDE [2]: 101 MEQ/L
- CHOLESTEROL [2]: 61 mg/dL
- CREATINE PHOSPHOKINASE [2]: 227.67 u/L
- CREATININE [2]: 0.16 mg/dL
- GLUCOSE [2]: 149 mg/dL
- LACTATE DEHYDROGENASE [2]: 138.67 u/L
- LIPASE [2]: 10.67 u/L
- PHOSPHORUS [2]: 11.67 mg/dL
- POTASSIUM [2]: 6.52 MEQ/L
- SODIUM [2]: 143.17 MEQ/L
- TOTAL BILIRUBIN [2]: 0.17 mg/dL
- TOTAL PROTEIN [2]: 5.93 G/DL
- URIC ACID [2]: 1.7 mg/dL
- ABSOLUTE BASOPHIL [3]: 0 CELLS/uL
- ABSOLUTE EOSINOPHIL [3]: 49 CELLS/uL
- ABSOLUTE LYMPHOCYTE [3]: 15618.33 CELLS/uL
- ABSOLUTE MONOCYTE [3]: 94.33 CELLS/uL
- ABSOLUTE SEGMENTED NEUTROPHIL [3]: 971.67 CELLS/uL
- BASOPHIL [3]: 0%
- EOSINOPHIL [3]: 0.33%
- ERYTHROCYTE COUNT [3]: 5.95 x10E6/uL
- HEMATOCRIT [3]: 37.33%
- HEMOGLOBIN [3]: 14.67 G/DL
- LEUKOCYTE COUNT [3]: 16.73 x10E3/uL
- LYMPHOCYTE [3]: 93.33%
- MEAN CORPUSCULAR HEMOGLOBIN [3]: 24.73 pg
- MEAN CORPUSCULAR HEMOGLOBIN CONCENTRATION [3]: 39.3 G/DL
- MEAN CORPUSCULAR VOLUME [3]: 62.9 fL
- MONOCYTE [3]: 0.67%
- NEUTROPHIL [3]: 5.67%
- NUCLEATED RED BLOOD CELLS [3]: 0 /100WBC
- PLATELET COUNT [3]: 1216.33 x10E3/uL
- ALANINE AMINOTRANSFERASE [3]: 55.33 u/L
- ALBUMIN [3]: 4.13 G/DL
- ALKALINE PHOSPHATASE [3]: 501 u/L
- ASPARTATE AMINOTRANSFERASE [3]: 86.67 u/L
- BLOOD UREA NITROGEN [3]: 14 mg/dL
- CARBON DIOXIDE [3]: 31 mmol/L
- CHLORIDE [3]: 100.67 MEQ/L
- CHOLESTEROL [3]: 67.33 mg/dL
- CREATINE PHOSPHOKINASE [3]: 446.67 u/L
- CREATININE [3]: 0.17 mg/dL
- GLUCOSE [3]: 165.67 mg/dL
- LACTATE DEHYDROGENASE [3]: 167.33 u/L
- LIPASE [3]: 11 u/L
- PHOSPHORUS [3]: 11.4 mg/dL
- POTASSIUM [3]: 6.52 MEQ/L
- SODIUM [3]: 143.23 MEQ/L
- TOTAL BILIRUBIN [3]: 0.23 mg/dL
- TOTAL PROTEIN [3]: 6.3 G/DL
- URIC ACID [3]: 1.77 mg/dL
